Measured values published in the supplement of paper PMC11208160.

Test: recombinant UMI read abundance after kanamycin selection (control-corrected) (log10(CPM+1)); higher = more efficient recombination; extreme values may be limits of the assay; sequences stand for … in AGTGCAGAGAAAATCGGCCAGTTTTCTCTGCCTGCAGTCCGCATGCCGTGGGACCCCTTGGGTTCTAACCTGTTGCCTAGATTTATGCAGCGGACTGCCTTTCTCCCAAAGTGATAAACCGG…AGGTTGGTTTCACT; site = the 11-nt donor
Protocol: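 Pooled E. coli donor-specificity screen for the IS621 bridge recombinase. Each library member carries a reprogrammed 11-nt donor and a full-length LE bridge RNA expressed in cis from the natural promoter, with a paired donor-binding loop (8-nt LDG + 4-nt RDG) and a target-binding loop fixed to T5. It is co-electroporated with a T5 target plasmid; recombinase is induced with 0.07 mM IPTG and recombinants are selected on kanamycin. UMIs are counted as CPM, averaged over two biological replicates and corrected by the unselected control. Molecule = full bridge RNA written as DNA, built from the T5 scaffold: LDG = donor specificity nt 1-8, RDG = reverse complement of nt 8-11.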
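Further: IS621 bridge recombinase in Escherichia coli cells against a fixed T5 target plasmid.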

| Sequence | recombinant UMI read abundance (log10) |
| --- | --- |
| ACGAGTGCATGGACCGGTTTTCCCGGTAATCCGTATTTGGT (site ACAAGTGCTAC) | 2.22 |
| ACGAGTGCATGGACCGGTTTTCCCGGTAATCCGTATTTGGT (site ACCAGTGCTAC) | 0.837 |
| ACGAGTGCATGGACCGGTTTTCCCGGTAATCCGTATTTGGT (site ACGAGTGCTAC) | 2.31 |
| ACGAGTGCATGGACCGGTTTTCCCGGTAATCCGTATTTGGT (site ACTAGTGCTAC) | 1.22 |
| ACGCAATCATGGACCGGTTTTCCCGGTAATCCGTATTTGAT (site ACGCAATCTAT) | 2.55 |
| ACGCACGCATGGACCGGTTTTCCCGGTAATCCGTATTTGCA (site ACGCACGCTTG) | 2.71 |
| ACGCCTACATGGACCGGTTTTCCCGGTAATCCGTATTTGAG (site ACGCCTACTCT) | 0.69 |
| ACGCGCACATGGACCGGTTTTCCCGGTAATCCGTATTTGTT (site ACGCGCACTAA) | 1.61 |
| ACGCGTCCATGGACCGGTTTTCCCGGTAATCCGTATTTGAC (site ACGCGTCCTGT) | 1.55 |
| ACGGAACCATGGACCGGTTTTCCCGGTAATCCGTATTTGAG (site ACGGAACCTCT) | 0 |
| ACGGAATCATGGACCGGTTTTCCCGGTAATCCGTATTTGTC (site ACGGAATCTGA) | 1.95 |
| ACGGATTCATGGACCGGTTTTCCCGGTAATCCGTATTTGCG (site ACGGATTCTCG) | 2.66 |
| ACGTAGACATGGACCGGTTTTCCCGGTAATCCGTATTTGGG (site ACATAGACTCC) | 0.351 |
| ACGTAGACATGGACCGGTTTTCCCGGTAATCCGTATTTGGG (site ACCTAGACTCC) | 0.0219 |
| ACGTAGACATGGACCGGTTTTCCCGGTAATCCGTATTTGGG (site ACGTAGACTCC) | 0.4 |
| ACGTAGACATGGACCGGTTTTCCCGGTAATCCGTATTTGGG (site ACTTAGACTCC) | 0.0197 |
| ACGTCTACATGGACCGGTTTTCCCGGTAATCCGTATTTGTG (site ACATCTACTCA) | 0.796 |
| ACGTCTACATGGACCGGTTTTCCCGGTAATCCGTATTTGTG (site ACCTCTACTCA) | 0.39 |

| Sequence | recombinant UMI read abundance (log10) |
| --- | --- |
| ACGTCTACATGGACCGGTTTTCCCGGTAATCCGTATTTGTG (site ACGTCTACTCA) | 0.512 |
| ACGTCTACATGGACCGGTTTTCCCGGTAATCCGTATTTGTG (site ACTTCTACTCA) | 0.0124 |
| ACGTCTGCATGGACCGGTTTTCCCGGTAATCCGTATTTGCT (site ACGTCTGCTAG) | 1.98 |
| ACTAACCCATGGACCGGTTTTCCCGGTAATCCGTATTTGGC (site ACTAACCCTGC) | 0 |
| ACTAATGCATGGACCGGTTTTCCCGGTAATCCGTATTTGGT (site ACTAATGCTAC) | 1.88 |
| ACTAATGCATGGACCGGTTTTCCCGGTAATCCGTATTTGGT (site ACTACTGCTAC) | 0.116 |
| ACTAATGCATGGACCGGTTTTCCCGGTAATCCGTATTTGGT (site ACTAGTGCTAC) | 0.00699 |
| ACTAATGCATGGACCGGTTTTCCCGGTAATCCGTATTTGGT (site ACTATTGCTAC) | 0.568 |
| ACTACAACATGGACCGGTTTTCCCGGTAATCCGTATTTGAG (site ACTAAAACTCT) | 0.00762 |
| ACTACAACATGGACCGGTTTTCCCGGTAATCCGTATTTGAG (site ACTACAACTCT) | 1.22 |
| ACTACAACATGGACCGGTTTTCCCGGTAATCCGTATTTGAG (site ACTAGAACTCT) | 0.216 |
| ACTACAACATGGACCGGTTTTCCCGGTAATCCGTATTTGAG (site ACTATAACTCT) | 0.494 |
| ACTAGAACATGGACCGGTTTTCCCGGTAATCCGTATTTGAA (site ACTAGAACTAT) | 0 |
| ACTAGAACATGGACCGGTTTTCCCGGTAATCCGTATTTGAA (site ACTAGAACTCT) | 0 |
| ACTAGAACATGGACCGGTTTTCCCGGTAATCCGTATTTGAA (site ACTAGAACTGT) | 0 |
| ACTAGAACATGGACCGGTTTTCCCGGTAATCCGTATTTGAA (site ACTAGAACTTT) | 1.45 |
| ACTAGAACATGGACCGGTTTTCCCGGTAATCCGTATTTGAC (site ACTAGAACTAT) | 0.00676 |
| ACTAGAACATGGACCGGTTTTCCCGGTAATCCGTATTTGAC (site ACTAGAACTCT) | 0.0218 |
